This note sets out measurements from patent US8883782B2, “Spiro-tetracyclic ring compounds as beta-secretase modulators and methods of use” (Amgen Inc., priority 2010, dated 2014).

Assay [1] relates to Aβ40 in conditioned medium of cells stably expressing Amyloid Precursor Protein (APP). Put plainly: In vitro BACE cell-based assay (Aβ40 in conditioned medium, sandwich ELISA). To be noted: Homo sapiens, HEK293, average IC50; read-out: HEK cell assay. The method in brief:
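Secreted Aβ40 is captured with pAb40 and detected with biotinylated 6E10, read by europium time-resolved fluorescence. IC50 comes from percent inhibition versus concentration.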
Background: In an ELISA, binding on a coated surface is turned into a signal by an enzyme label.

For assay [2], the target named is Beta Secretase enzyme (BACE) (Homo sapiens, UniProt P56817). Nature of the assay: In vitro enzymatic BACE FRET (fluorescence resonance energy transfer) assay. To be noted: average IC50, enzyme assay; read-out: BACE 1 FRET assay. The assay is classed as biochemical. The method, boiled down:
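Acetate buffer (0.05 M, pH 4.2), 10% DMSO final, 100 uM nonionic detergent genapol. Substrate addition (50 nM FRET peptide) initiates; one-hour incubation; Tris raises pH to neutrality before fluorescence measurement.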

Beta Secretase enzyme (BACE), sequence (P56817 46-501, species assumed): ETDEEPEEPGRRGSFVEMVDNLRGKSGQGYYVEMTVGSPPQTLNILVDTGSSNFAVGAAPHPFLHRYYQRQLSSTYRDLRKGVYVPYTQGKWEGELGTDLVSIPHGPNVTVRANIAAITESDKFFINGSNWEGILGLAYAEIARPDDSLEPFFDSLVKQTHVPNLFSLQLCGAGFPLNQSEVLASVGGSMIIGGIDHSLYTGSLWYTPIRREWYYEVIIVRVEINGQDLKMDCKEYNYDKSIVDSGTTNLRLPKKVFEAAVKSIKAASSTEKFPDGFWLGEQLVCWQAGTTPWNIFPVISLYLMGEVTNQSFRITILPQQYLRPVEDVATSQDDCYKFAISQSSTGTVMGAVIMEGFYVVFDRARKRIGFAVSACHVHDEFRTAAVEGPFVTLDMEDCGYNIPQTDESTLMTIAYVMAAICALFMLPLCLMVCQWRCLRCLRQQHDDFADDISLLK

`COC(C)(C)COc1cnc2c(c1)[C@]1(COC(N)=N1)c1cc(-c3cccc(F)c3F)ccc1O2` [Example 315, (5S)-7-(2,3-difluorophenyl)-3-(2-methoxy-2-methylpropoxy)spiro[chromeno[2,3-b]pyridine-5,4′-[1,3]oxazol]-2′-amine]: the IC50 in assay [1] worked out at 31.7 nM; in assay [2] it was 5.2 nM.
As for `COC(C)(C)COc1cnc2c(c1)[C@@]1(COC(N)=N1)c1cc(-c3cccc(C(F)(F)F)c3)ccc1O2` [Example 316, (5R)-3-(2-methoxy-2-methylpropoxy)-7-(3-(trifluoromethyl)phenyl)spiro[chromeno[2,3-b]pyridine-5,4′-[1,3]oxazol]-2′-amine], the IC50 is 2100 nM in assay [1] and 393 nM in assay [2].
Regarding `COC(C)(C)COc1cnc2c(c1)[C@]1(COC(N)=N1)c1cc(-c3cccc(C(F)(F)F)c3)ccc1O2` [Example 317, (5S)-3-(2-methoxy-2-methylpropoxy)-7-(3-(trifluoromethyl)phenyl)spiro[chromeno[2,3-b]pyridine-5,4′-[1,3]oxazol]-2′-amine], the values for the IC50 in assay [1] and in assay [2] were 23.9 nM and 2.5 nM, respectively.
As to `COC(C)(C)COc1cnc2c(c1)[C@@]1(COC(N)=N1)c1cc(-c3cc(Cl)ccc3F)ccc1O2` [Example 318, (5R)-7-(5-chloro-2-fluorophenyl)-3-(2-methoxy-2-methylpropoxy)spiro[chromeno[2,3-b]pyridine-5,4′-[1,3]oxazol]-2′-amine], the IC50 amounted to 1810 nM in assay [1] and 367 nM in assay [2].
Regarding `COC(C)(C)COc1cnc2c(c1)[C@]1(COC(N)=N1)c1cc(-c3cc(Cl)ccc3F)ccc1O2` [Example 319, (5S)-7-(5-chloro-2-fluorophenyl)-3-(2-methoxy-2-methylpropoxy)spiro[chromeno[2,3-b]pyridine-5,4′-[1,3]oxazol]-2′-amine], the IC50 in assay [1] came to 5.3 nM; in assay [2], 0.7 nM.
Regarding `NC1=N[C@@]2(CO1)c1cc(-c3cccnc3F)ccc1Oc1cc(F)c(C3=CCOCC3)cc12` [Example 320, (4S)-2′-(3,6-dihydro-2H-pyran-4-yl)-3′-fluoro-7′-(2-fluoro-3-pyridinyl)spiro[1,3-oxazole-4,9′-xanthen]-2-amine], the figures for the IC50 in assay [1] and in assay [2] were 60 nM and 6.6 nM, respectively.
As for `NC1=N[C@@]2(CO1)c1cc(-c3cccnc3F)ccc1Oc1cc(F)c(-c3ccncc3)cc12` [Example 321, (4S)-3′-fluoro-7′-(2-fluoro-3-pyridinyl)-2′-(4-pyridinyl)spiro[1,3-oxazole-4,9′-xanthen]-2-amine], the values for the IC50 in assay [1] and in assay [2] were 61.5 nM and 20.3 nM, respectively.
Consider `COc1cccc(-c2ccc3c(c2)[C@@]2(COC(N)=N2)c2cc(C4=CCOCC4)cnc2O3)c1` [Example 322, (5S)-3-(3,6-dihydro-2H-pyran-4-yl)-7-(3-methoxyphenyl)spiro[chromeno[2,3-b]pyridine-5,4′-[1,3]oxazol]-2′-amine], for which the IC50 turned out to be 26.1 nM in assay [1] and 3.6 nM in assay [2].
Consider `COc1ccc(F)c(-c2ccc3c(c2)[C@@]2(COC(N)=N2)c2cc(C4=CCOCC4)cnc2O3)c1` [Example 323, (5S)-3-(3,6-dihydro-2H-pyran-4-yl)-7-(2-fluoro-5-methoxyphenyl)spiro[chromeno[2,3-b]pyridine-5,4′-[1,3]oxazol]-2′-amine], for which the IC50 in assay [1] came to 15.5 nM; in assay [2], 1.4 nM.
For `Cc1ccc(-c2ccc3c(c2)[C@@]2(COC(N)=N2)c2cc(C4=CCOCC4)cnc2O3)o1` [Example 324, (5S)-3-(3,6-dihydro-2H-pyran-4-yl)-7-(5-methyl-2-furanyl)spiro[chromeno[2,3-b]pyridine-5,4′-[1,3]oxazol]-2′-amine], in that order: 158 nM and 42 nM.
In the case of `CC1(COc2cc3c(cc2F)Oc2ccc(-c4ccnc(Cl)c4)cc2[C@@]32COC(N)=N2)COC1` [Example 325, (4S)-7′-(2-chloro-4-pyridinyl)-3′-fluoro-2′-((3-methyl-3-oxetanyl)methoxy)spiro[1,3-oxazole-4,9′-xanthen]-2-amine], the results for the IC50 in assay [1] and in assay [2] were 255 nM and 50.2 nM, respectively.
